ChEMBL document CHEMBL6134778, “Spiro-Azetidine Oxindoles as Long-Acting Injectables for Pre-Exposure Prophylaxis against Respiratory Syncytial Virus Infections” (J Med Chem, 2024)
In brackets after ≈: the same amount, converted by molar mass.

Tests used:
[1] = Volume of distribution at steady state in Beagle dog at 0.25 mg/kg, iv by LC-MS/MS analysis; assay type: ADME, organism-based, Canis lupus familiaris; details: in vivo, read-out: Vdss
[2] = tested on: Canis familiaris; experiment: Particle size for the 50th percentile of the cumulative volume distribution in Beagle dog at 20 mg/kg, IM […]; assay type: ADME, organism-based, Canis lupus familiaris; details: in vivo
[3] = tested on: Rattus norvegicus; experiment: Particle size for the 50th percentile of the cumulative volume distribution in Sprague-Dawley rat at 50 mg/kg, IM […]; assay type: ADME, organism-based; details: in vivo
[4] = tested on: HeLa; experiment: Cytotoxicity against human HeLa cells assessed as reduction in cell viability at highest concentration measured after 3 days by ATPlite assay; assay type: toxicity, cell-based; details: 72 h, time 3 day
[5] = Bioavailability in Sprague-Dawley rat assessed as dose released at 50 mg/kg, IM measured over 12 weeks by LC-MS/MS analysis; assay type: ADME, organism-based; details: in vivo
[6] = Chromatographic hydrophobicity index, logD of the compound at pH 7.4 by UPLC analysis; assay type: physicochemical; details: buffer
[7] = tested on: Respiratory syncytial virus; experiment: Antiviral activity against RSV A2 harboring eGFP infected in human HeLa cells assessed as reduction in virus replication by measuring 3X protein-adjusted effective concentration for 90% inhibition measured after 3 days in presence of human serum albumin and alpha(1)-acid glycoprotein by laser microscopy; assay type: functional; details: time 3 day
[8] = Intrinsic clearance in human hepatocytes assessed per million cells at 1 uM measured after 180 mins by LC-MS/MS analysis; assay type: ADME, cell-based, Hepatocyte; details: read-out: CLH
[9] = Volume of distribution at steady state in Sprague-Dawley rat at 1 mg/kg, iv by LC-MS/MS analysis; assay type: ADME, organism-based; details: in vivo, read-out: Vdss
[10] = tested on: Canis familiaris; experiment: Release rate constant in Beagle dog at 20 mg/kg, IM by LC-MS/MS analysis; assay type: ADME, organism-based, Canis lupus familiaris; details: in vivo
[11] = tested on: Rattus norvegicus; experiment: Release rate constant in Sprague-Dawley rat at 50 mg/kg, IM measured over 12 weeks by LC-MS/MS analysis; assay type: ADME, organism-based; details: in vivo, 2016 h
[12] = tested on: Respiratory syncytial virus; experiment: Antiviral activity against RSV A2 harboring eGFP infected in human HeLa cells assessed as reduction in virus replication measured after 3 days by laser microscopy; assay type: functional, organism-based; details: 72 h
[13] = Equilibrium solubility of the compound […] at pH 7 measured after 3 days by LC-MS/MS analysis; assay type: physicochemical; details: time 3 day
[14] = Clearance in Sprague-Dawley rat at 1 mg/kg, iv by LC-MS/MS analysis; assay type: ADME, organism-based; details: in vivo
[15] = Intrinsic clearance in human liver microsomes assessed per mg protein at 1 uM measured after 60 mins in presence of NADPH by LC-MS/MS analysis; assay type: ADME, Microsome; details: read-out: CLH
[16] = Thermodynamic solubility in aqueous buffer at pH 7 incubated for 24 hrs by UPLC analysis; assay type: physicochemical; details: read-out: Therm_solubility
[17] = Bioavailability in Beagle dog assessed as dose released at 20 mg/kg, IM by LC-MS/MS analysis; assay type: ADME, organism-based, Canis lupus familiaris; details: in vivo
[18] = Clearance in Beagle dog at 0.25 mg/kg, iv by LC-MS/MS analysis; assay type: ADME, organism-based, Canis lupus familiaris; details: in vivo
[19] = tested on: Respiratory syncytial virus; experiment: Antiviral activity against RSV A2 infected in PO or IM dosed BALB/c mouse assessed as reduction in viral titer in BALF by plaque assay; assay type: functional, organism-based; details: human respiratory syncytial virus
[20] = tested on: Respiratory syncytial virus; experiment: Antiviral activity against RSV A/18-001989 harboring eGFP infected in human HeLa cells assessed as reduction in virus replication measured after 3 days by laser microscopy; assay type: functional, organism-based; details: A/18-001989, HeLa, 72 h
[21] = tested on: Respiratory syncytial virus; experiment: Antiviral activity against RSV B/18-002094 harboring eGFP infected in human HeLa cells assessed as reduction in virus replication measured after 3 days by laser microscopy; assay type: functional, organism-based; details: B/18-002094, HeLa, 72 h
[22] = Intrinsic clearance in human hepatocytes assessed per million cells measured after 6 hrs using tritiated compound by LC-MS/MS analysis; assay type: ADME, cell-based, Hepatocyte; details: read-out: CLH
[23] = tested on: Respiratory syncytial virus; experiment: Antiviral activity against RSV B Wash/18537 harboring eGFP infected in human HeLa cells assessed as reduction in virus replication measured after 3 days by laser microscopy; assay type: functional, organism-based; details: B Wash/18537, HeLa, 72 h
[24] = tested on: Respiratory syncytial virus; experiment: Antiviral activity against RSV B/03-034613 harboring eGFP infected in human HeLa cells assessed as reduction in virus replication measured after 3 days by laser microscopy; assay type: functional, organism-based; details: B/03-034613, HeLa, 72 h
[25] = tested on: Respiratory syncytial virus; experiment: Antiviral activity against RSV A Long harboring eGFP infected in human HeLa cells assessed as reduction in virus replication measured after 3 days by laser microscopy; assay type: functional, organism-based; details: 72 h
[26] = tested on: Respiratory syncytial virus; experiment: Antiviral activity against RSV A2 harboring V76A/Y117H/N517I/L172Q mutant infected in human HeLa cells assessed as reduction in virus replication measured after 3 days by laser microscopy; assay type: functional, organism-based; details: 72 h
[27] = tested on: Respiratory syncytial virus; experiment: Antiviral activity against RSV rgRSV224 (A2-GFP) harboring eGFP infected in human HeLa cells assessed as reduction in virus replication measured after 3 days by laser microscopy; assay type: functional, organism-based; details: 72 h
[28] = tested on: Respiratory syncytial virus; experiment: Antiviral activity against RSV A/07-041911 harboring eGFP infected in human HeLa cells assessed as reduction in virus replication measured after 3 days by laser microscopy; assay type: functional, organism-based; details: A/07-041911, HeLa, 72 h
[29] = tested on: Respiratory syncytial virus; experiment: Antiviral activity against RSV A/13-000323 harboring eGFP infected in human HeLa cells assessed as reduction in virus replication measured after 3 days by laser microscopy; assay type: functional, organism-based; details: A/13-000323, HeLa, 72 h
[30] = tested on: Respiratory syncytial virus; experiment: Antiviral activity against RSV B pSynk-18537F (18537-mKate2) harboring eGFP infected in human HeLa cells assessed as reduction in virus replication measured after 3 days by laser microscopy; assay type: functional, organism-based; details: 72 h
[31] = tested on: Respiratory syncytial virus; experiment: Antiviral activity against RSV A Memphis 37 harboring eGFP infected in human HeLa cells assessed as reduction in virus replication measured after 3 days by laser microscopy; assay type: functional, organism-based; details: A Memphis 37, HeLa, 72 h
[32] = tested on: Respiratory syncytial virus; experiment: Antiviral activity against RSV A/12-049454 harboring eGFP infected in human HeLa cells assessed as reduction in virus replication measured after 3 days by laser microscopy; assay type: functional, organism-based; details: A/12-049454, HeLa, 72 h
[33] = tested on: Respiratory syncytial virus; experiment: Antiviral activity against RSV B/05-036549 harboring eGFP infected in human HeLa cells assessed as reduction in virus replication measured after 3 days by laser microscopy; assay type: functional, organism-based; details: B/05-036549, HeLa, 72 h
[34] = tested on: Respiratory syncytial virus; experiment: Antiviral activity against RSV pSynk-A2F (A2-mKate2) harboring eGFP infected in human HeLa cells assessed as reduction in virus replication measured after 3 days by laser microscopy; assay type: functional, organism-based; details: 72 h
[35] = tested on: Respiratory syncytial virus; experiment: Antiviral activity against RSV A Long infected in PO dosed cotton rat assessed as reduction in viral titer in BALF administered twice day from 1 day prior to infection to 3 days post-infection by plaque assay; assay type: functional, organism-based; details: human respiratory syncytial virus
[36] = tested on: Respiratory syncytial virus; experiment: Antiviral activity against RSV B/11-050703 harboring eGFP infected in human HeLa cells assessed as reduction in virus replication measured after 3 days by laser microscopy; assay type: functional, organism-based; details: B/11-050703, HeLa, 72 h
[37] = tested on: Respiratory syncytial virus; experiment: Antiviral activity against RSV B/17-058221 harboring eGFP infected in human HeLa cells assessed as reduction in virus replication measured after 3 days by laser microscopy; assay type: functional, organism-based; details: B/17-058221, HeLa, 72 h
[38] = tested on: Respiratory syncytial virus; experiment: Antiviral activity against RSV B/14-006938 harboring eGFP infected in human HeLa cells assessed as reduction in virus replication measured after 3 days by laser microscopy; assay type: functional, organism-based; details: B/14-006938, HeLa, 72 h
[39] = tested on: Respiratory syncytial virus; experiment: Antiviral activity against RSV A/11-014288 harboring eGFP infected in human HeLa cells assessed as reduction in virus replication measured after 3 days by laser microscopy; assay type: functional, organism-based; details: A/11-014288, HeLa, 72 h

CC(C)NC(=O)N1CC2(C1)C(=O)N(Cc1nc3cc(Cl)ccc3n1CCCC(F)(F)F)c1cnccc12
Vd [1]: 1.66 L/kg | Particle size (D50) [2]: 5.03 um | Median particle size (D50) [3]: 4.36 um | Activity [4]: Non-toxic | bioavailability [5]: 107% | CHI [6]: 2.39 | protein-adjusted EC90 [7]: 0.0037 µg/mL | hepatocyte CLint at 1 µM [8]: < 1.2 µL/min/1e6 cells | Vd [9]: 1.94 L/kg | Ka [10]: 0.01 h⁻¹ | Ka [11]: 0.005 h⁻¹ | EC50 [12]: 0.23 nM | solubility at 72 h [13]: 11 µM (≈ 5.88 µg/mL) | clearance [14]: 36.9 mL/min/kg | microsomal CLint at 1 µM [15]: < 7.7 µL/min/mg | solubility thermodynamic at 24 h [16]: < 0.1 µg/mL | bioavailability [17]: 90% | clearance [18]: 14.6 mL/min/kg

CS(=O)(=O)N1CC2(C1)C(=O)N(Cc1nc3cc(Cl)ccc3n1CCCC(F)(F)F)c1ccccc12
EC50 [19]: 0.088 µg/mL (≈ 0.167 µM) | EC50 [20]: 1.6 nM | Vd [1]: 5.3 L/kg | Particle size (D50) [2]: 5.06 um | EC50 [21]: 1.6 nM | Median particle size (D50) [3]: 6.38 um | Activity [4]: Non-toxic | hepatocyte CLint [22]: < 1.2 µL/min/1e6 cells | bioavailability [5]: 52% | EC50 [23]: 1.6 nM | EC50 [24]: 1.6 nM | EC50 [25]: 1.6 nM | CHI [6]: 3.39 | protein-adjusted EC90 [7]: 0.034 µg/mL | Vd [9]: 4.43 L/kg | EC50 [26]: 1.6 nM | EC50 [27]: 1.6 nM | EC50 [28]: 1.6 nM | EC50 [29]: 1.6 nM | EC50 [30]: 1.6 nM | Ka [10]: 0 h⁻¹ | Ka [11]: 0 h⁻¹ | EC50 [31]: 1.6 nM | EC50 [32]: 1.6 nM | EC50 [33]: 1.6 nM | EC50 [34]: 1.6 nM | EC50 [35]: 0.026 µg/mL (≈ 0.0493 µM) | EC50 [36]: 1.6 nM | EC50 [12]: 0.78 nM | EC50 [37]: 1.6 nM | solubility at 72 h [13]: < 0.04 µM | clearance [14]: 18.5 mL/min/kg | EC50 [38]: 1.6 nM | microsomal CLint at 1 µM [15]: < 7.7 µL/min/mg | solubility thermodynamic at 24 h [16]: < 0.1 µg/mL | EC50 [39]: 1.6 nM | bioavailability [17]: 50% | clearance [18]: 0.46 mL/min/kg

CC(C)(O)C(=O)N1CC2(C1)C(=O)N(Cc1nc3cc(Cl)ccc3n1CCCC(F)(F)F)c1ccccc12
Vd [1]: 1.77 L/kg | Particle size (D50) [2]: 1.03 um | Median particle size (D50) [3]: 1.02 um | Activity [4]: Non-toxic | bioavailability [5]: 85% | CHI [6]: 2.84 | protein-adjusted EC90 [7]: 0.031 µg/mL | hepatocyte CLint at 1 µM [8]: < 1.2 µL/min/1e6 cells | Vd [9]: 2.78 L/kg | Ka [10]: 0.003 h⁻¹ | Ka [11]: 0.001 h⁻¹ | EC50 [12]: 1 nM | solubility at 72 h [13]: 0.74 µM (≈ 0.396 µg/mL) | clearance [14]: 9.3 mL/min/kg | microsomal CLint at 1 µM [15]: < 7.7 µL/min/mg | solubility thermodynamic at 24 h [16]: < 0.1 µg/mL | bioavailability [17]: 102% | clearance [18]: 3.56 mL/min/kg
